Patent US20170114030A1, “COMPOSITION WITH HIGH CONTENT OF CYCLIC DIPEPTIDE” (SUNTORY HOLDINGS LIMITED, priority 2014, published 2017)

Tested on: NCI-H716 cells
Assay: In vitro GLP-1 secretion-accelerating action (active GLP-1 ELISA)
Type: cell-based
Conditions: for Significant difference (p < 0.05) vs control group, amount of active GLP-1 secreted: 1 hour, Student's t-test; for Amount of active GLP-1 secreted (relative value to control group as 100), Average value: after 1 hour, group with no cyclic dipeptide = 100
Procedure: In the Test Examples below, data were represented as average value±standard error. In Test Examples 1, 2, and 3, a Student's t-test was used for a statistical test, and in other Test Examples, one-way ANOVA was carried out for dispersion analysis followed by a multiple comparison test by using a Dunnet's test. […] All of these analyses were carried out by using an SPSS for Windows release 17.0 (manufactured by SPSS Inc.).
Among the cyclic dipeptides, 92 highly water-soluble cyclic dipeptides were used in the following experiment. In each well of a Poly-L-Lysine 96-well plate, NCI-H716 cells suspended in 100 μL of a DMEM (with 10% FBS, 2 mM glutamine, and 1% antibiotics added in advance) were seeded at 0.5×10^5 cells/well, and cultured in a CO2 incubator (manufactured by ESPEC CORP.) for 48 hours. After washing with PBS(+), 100 μL of a PBS(+) solution with each cyclic dipeptide at a final concentration of 10 mM and 10 μM of Sitagliptin phosphate added therein was added to the cells. After 1 hour, the resultant solution was recovered, and the amount of active GLP-1 in the solution was measured by using the ELISA kit. In the analysis, the amount of active GLP-1 for a group with no cyclic dipeptide added was defined as 100, and relative values thereto were used.
In each Table, cyclic dipeptides for which an in vitro active GLP-1 secretion-accelerating activity was found and was not found are listed.

[1] = Experiment 3, cyclic dipeptide 10 mM with 10 μM Sitagliptin phosphate
[2] = Experiment 4, cyclic dipeptide 10 mM with 10 μM Sitagliptin phosphate

| Structure (SMILES) | Significant difference (p < 0.05) vs control group, amount of active GLP-1 secreted (Experiment 3, 10 mM) | Amount of active GLP-1 secreted (relative value to control group as 100), Average value [1] | Significant difference (p < 0.05) vs control group, amount of active GLP-1 secreted (Experiment 4, 10 mM) | Amount of active GLP-1 secreted (relative value to control group as 100), Average value [2] |
| --- | --- | --- | --- | --- |
| N=C(N)NCCCC1NC(=O)C(Cc2cnc[nH]2)NC1=O (centres unmarked) [compound 112] | No | 106 |  |  |
| CC1NC(=O)C(CCC(=O)O)NC1=O (centres unmarked) [compound 113] | No | 157 |  |  |
| N=C(N)NCCCC1NC(=O)CNC1=O (centres unmarked) [compound 117] | No | 98 |  |  |
| CC1NC(=O)C(CC(N)=O)NC1=O (centres unmarked) [compound 124] | No | 116 |  |  |
| NC(=O)CCC1NC(=O)CNC1=O (centres unmarked) [compound 126] | Yes | 210 |  |  |
| NC(=O)CC1NC(=O)C(CCC(=O)O)NC1=O (centres unmarked) [compound 129] | No | 118 |  |  |
| NC(=O)CCC1NC(=O)C(CCC(=O)O)NC1=O (centres unmarked) [compound 130] | No | 120 |  |  |
| NC(=O)CCC1NC(=O)C(CO)NC1=O (centres unmarked) [compound 136] | No | 251 |  |  |
| CC1NC(=O)C(CC(=O)O)NC1=O (centres unmarked) [compound 153] | No | 94 |  |  |
| O=C1CNC(=O)C(CO)N1 (centres unmarked) [compound 154] | No | 116 |  |  |
| N=C(N)NCCCC1NC(=O)C(CO)NC1=O (centres unmarked) [compound 159] | Yes | 135 |  |  |
| CC(O)C1NC(=O)C(CC(=O)O)NC1=O (centres unmarked) [compound 165] | No | 140 |  |  |
| CC(O)C1NC(=O)C(CC(N)=O)NC1=O (centres unmarked) [compound 166] | No | 149 |  |  |
| CC(O)C1NC(=O)C(CCC(N)=O)NC1=O (centres unmarked) [compound 167] | No | 156 |  |  |
| CC(O)C1NC(=O)C(CCCNC(=N)N)NC1=O (centres unmarked) [compound 168] | No | 142 |  |  |
| NC(=O)CC1NC(=O)C(CC(=O)O)NC1=O (centres unmarked) [compound 170] | No | 125 |  |  |
| CSCCC1NC(=O)C(CCC(N)=O)NC1=O (centres unmarked) [compound 186] |  |  | Yes | 191 |
| N=C(N)NCCCC1NC(=O)C(Cc2c[nH]c3ccccc23)NC1=O (centres unmarked) [compound 189] |  |  | Yes | 314 |
| O=C(O)CCC1NC(=O)C(CO)NC1=O (centres unmarked) [compound 192] |  |  |  | 993 |
| N=C(N)NCCCC1NC(=O)C(CC(N)=O)NC1=O (centres unmarked) [compound 197] |  |  | Yes | 359 |
| N=C(N)NCCCC1NC(=O)C(CCCNC(=N)N)NC1=O (centres unmarked) [compound 212] |  |  | Yes | 1050 |
